# Activity calls are given as the source filed them. No cut-off for these calls is given here.
# Columns and labels:
# [1] = Stability in human liver microsomes assessed as intrinsic clearance; assay type: ADME; settings: read-out: CLH
# [2] = Stability in rat liver microsomes assessed as intrinsic clearance; assay type: ADME; settings: read-out: CLH
# Cathepsin D [3] = target: T1, Cathepsin D (Homo sapiens, UniProt P07339); test: Inhibition of human liver cathepsin D using MCA-labeled GKPILFFRLK(Dnp)-D-R-NH2 peptide by fluorescence-based assay
# T1 sequence (P07339 65-162 limits assumed): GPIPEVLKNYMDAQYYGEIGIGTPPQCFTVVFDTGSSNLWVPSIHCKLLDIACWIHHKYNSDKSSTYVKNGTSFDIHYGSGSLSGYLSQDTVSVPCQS
# T1 sequence (P07339 169-412 limits assumed): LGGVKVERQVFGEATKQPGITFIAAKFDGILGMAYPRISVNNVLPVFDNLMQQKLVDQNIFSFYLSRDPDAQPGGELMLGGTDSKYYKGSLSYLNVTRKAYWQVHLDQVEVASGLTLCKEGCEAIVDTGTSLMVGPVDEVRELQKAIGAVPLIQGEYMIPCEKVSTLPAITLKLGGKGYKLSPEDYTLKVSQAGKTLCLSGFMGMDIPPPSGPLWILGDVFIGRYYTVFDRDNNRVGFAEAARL
# Renin = target: T2, Renin (Homo sapiens, UniProt P00797); test: Inhibition of human recombinant renin using quenched Dabcyl-g-Abu-IHPFHLVIHT-Edans peptide substrate by fluorescence-based assay
# T2 sequence (P00797 whole entry): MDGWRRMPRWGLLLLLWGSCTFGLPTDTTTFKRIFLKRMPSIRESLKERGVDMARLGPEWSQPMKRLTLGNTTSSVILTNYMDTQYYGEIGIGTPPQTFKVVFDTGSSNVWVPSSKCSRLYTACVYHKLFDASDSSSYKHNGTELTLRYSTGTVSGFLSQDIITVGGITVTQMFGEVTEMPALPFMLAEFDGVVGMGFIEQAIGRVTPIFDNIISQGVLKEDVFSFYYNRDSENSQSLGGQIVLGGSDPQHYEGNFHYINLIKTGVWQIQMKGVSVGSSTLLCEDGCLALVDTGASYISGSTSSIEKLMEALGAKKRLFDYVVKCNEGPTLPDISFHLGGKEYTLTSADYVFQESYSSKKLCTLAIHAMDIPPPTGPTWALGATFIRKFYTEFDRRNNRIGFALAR
# Cathepsin D (Bos taurus) = target: T3, Cathepsin D (Bos taurus) (UniProt P80209); test: Inhibition of cathepsin D in bovine cartilage explants assessed as reduction in sulphated GAGs level at <1 uM after 3 days by spectrophotometric 1,9-dimethylmethylene blue shift assay based glycosaminoglycan release method
# T3 sequence (whole entry): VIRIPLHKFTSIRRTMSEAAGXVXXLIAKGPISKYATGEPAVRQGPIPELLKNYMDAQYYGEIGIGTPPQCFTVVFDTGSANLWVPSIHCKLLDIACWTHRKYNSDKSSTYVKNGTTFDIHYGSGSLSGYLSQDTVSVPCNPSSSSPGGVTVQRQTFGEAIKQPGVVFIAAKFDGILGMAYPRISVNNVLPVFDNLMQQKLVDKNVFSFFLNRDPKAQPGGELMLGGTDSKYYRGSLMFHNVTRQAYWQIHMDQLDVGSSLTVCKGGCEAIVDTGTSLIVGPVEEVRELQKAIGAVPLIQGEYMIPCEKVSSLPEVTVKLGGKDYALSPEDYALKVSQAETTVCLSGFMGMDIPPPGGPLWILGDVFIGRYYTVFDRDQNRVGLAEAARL
# [4] = Stability in mouse liver microsomes assessed as intrinsic clearance; assay type: ADME; settings: read-out: CLH
# Cathepsin D [5] = target: T1, Cathepsin D
# [6] = Inhibition of pepsin (unknown origin); design: species or system Homo sapiens
# Cathepsin D [7] = target: T4, Cathepsin D (Bos taurus, UniProt P80209); test: Inhibition of cathepsin D in bovine cartilage explants assessed as reduction in sulphated GAGs level after 3 days by spectrophotometric 1,9-dimethylmethylene blue shift assay based glycosaminoglycan release method
# T4 sequence (P80209 whole entry): T3 sequence (whole entry)
# [8] = Apparent permeability across apical to basolateral side in human Caco2 cells; assay type: ADME, cell-based; settings: Caco-2
Structure (SMILES),microsomal CLint [1] [µL/min/mg],microsomal CLint [2] [µL/min/mg],IC50 (Cathepsin D [3]) [µM],IC50 (Renin) [µM],other results
COc1ccc(CNC(=O)[C@@H](CC(C)C)NC(=N)NC(=O)Cc2ccc(OC)c(OC)c2)cc1OC,262,143,,,
COc1cc(Br)c(CC(=O)NC(=N)N[C@H](CC2CCCCC2)C(=O)NCc2cccc(-c3nnn[nH]3)c2)cc1OC,240,33,,,microsomal CLint [4]: 40 µL/min/mg
COc1ccc(CC(=O)NC(=N)N[C@H](CC2CCCCC2)C(=O)NCc2ccc(F)c(F)c2)cc1OC,,,0.17,,
COc1cc(Br)c(C(=O)N[C@@H](Cc2cccc(Oc3ccccc3)c2)[C@@H](O)CN(CCc2ccc(Cl)cc2Cl)C(=O)CCN2C(=O)c3ccccc3C2=O)cc1OC,,,,,inhibition (Cathepsin D (Bos taurus)): inactive; IC50 (Cathepsin D [5]): 0.085 µM
CC(C)CC(=O)N[C@H](C(=O)N[C@H](C(=O)N[C@@H](CC(C)C)[C@@H](O)CC(=O)N[C@@H](C)C(=O)N[C@@H](CC(C)C)[C@@H](O)CC(=O)O)C(C)C)C(C)C [PEPSTATIN],,,,,IC50 [6]: 0.0001 µM
COc1cc(CNC(=O)[C@@H](CC(C)C)NC(=N)NC(=O)Cc2ccc(OC)c(OC)c2)ccc1F,966,148,,8.7,IC50 (Cathepsin D [7]): 0.62 µM
COc1ccc(CNC(=O)[C@@H](CC2CCCCC2)NC(=N)NC(=O)Cc2ccc(OC)c(OC)c2)cc1F,,,,13,
COc1cc(CNC(=O)[C@@H](CC2CCCCC2)NC(=N)NC(=O)Cc2ccc(OC)c(OC)c2)ccc1F,> 1000,241,,16,IC50 (Cathepsin D [7]): 0.5 µM; Papp A→B [8]: 5 ×10⁻⁶ cm/s
COc1ccc(CC(=O)NC(=N)N[C@H](CC(C)C)C(=O)NCc2ccc(-c3nnn[nH]3)cc2)cc1OC,69,< 10,,,microsomal CLint [4]: < 10 µL/min/mg
COc1ccc(CNC(=O)[C@@H](Cc2ccccc2)NC(=N)NC(=O)Cc2ccc(OC)c(OC)c2)cc1OC,> 1000,384,,> 30,IC50 (Cathepsin D [7]): 0.33 µM
COc1ccc(CC(=O)NC(=N)N[C@H](CC(C)C)C(=O)NCc2ccc(-c3nnn[nH]3)c(F)c2)cc1OC,54,< 10,,,
COc1cc(CNC(=O)[C@@H](CC2CCCCC2)NC(=N)NC(=O)Cc2cc(OC)c(OC)cc2Br)ccc1F,> 1000,823,,> 30,IC50 (Cathepsin D [7]): 0.9 µM
COc1ccc(CC(=O)NC(=N)N[C@H](CC2CCCCC2)C(=O)NCc2ccc(-c3nnn[nH]3)cc2)cc1OC,76,38,,,IC50 (Cathepsin D [7]): 1.8 µM; microsomal CLint [4]: < 10 µL/min/mg; Papp A→B [8]: 0.25 ×10⁻⁶ cm/s

# More lines, main results first:
microsomal CLint [1] [µL/min/mg],microsomal CLint [2] [µL/min/mg],IC50 (Cathepsin D [3]) [µM],IC50 (Renin) [µM],Structure (SMILES),other results
,,2.7,> 30,COc1ccc(CNC(=N)NC(=O)Cc2cc(OC)c(OC)cc2[N+](=O)[O-])cc1OC,inhibition (Cathepsin D (Bos taurus)): inactive
,,1.5,> 30,COc1cc(CC(=O)NC(=N)NCc2ccc(Cl)cc2)c([N+](=O)[O-])cc1OC,inhibition (Cathepsin D (Bos taurus)): inactive
,,18,> 30,COc1cc(CCCC(=O)NC(=N)NCc2ccccc2)c([N+](=O)[O-])cc1OC,
,,29,> 30,COc1ccc(CC(=O)NC(=N)NCc2ccc(N)cc2)cc1OC,
,,6.1,> 30,COc1ccc(Cl)c(CC(=O)NC(=N)NCc2ccccc2)c1,
,,10,> 30,COc1cc(CC(=O)NC(=N)NCc2ccccc2)c([N+](=O)[O-])cc1OC,
107,17,,,COc1cc(Br)c(CC(=O)NC(=N)N[C@H](CC(C)C)C(=O)NCc2cccc(-c3nnn[nH]3)c2)cc1OC,microsomal CLint [4]: 38 µL/min/mg
,,1.9,> 30,COc1ccc(CC(=O)NC(=N)NCc2ccc(C)cc2)cc1OC,inhibition (Cathepsin D (Bos taurus)): inactive
,,0.44,> 30,COc1cc(CC(=O)NC(=N)NCc2ccc(Cl)c(Cl)c2)c([N+](=O)[O-])cc1OC,inhibition (Cathepsin D (Bos taurus)): inactive
,,25,20,COc1ccc(CCC(=O)NC(=N)NCc2ccccc2)cc1OC,
,,3,> 30,COc1cc(CC(=O)NC(=N)NCc2ccccc2Cl)c([N+](=O)[O-])cc1OC,inhibition (Cathepsin D (Bos taurus)): inactive
